Experimental data published in the NIST ThermoML archive (doi:10.1016/j.jct.2015.02.020).
± gives the expanded uncertainty stated by the source.

Columns and labels:
[1] = xn = mol fraction of the nth substance listed; conditions: 101.3 kPa, Liquid; for viscosity: Falling or rolling sphere viscometry; for speed of sound: Sing-around technique in a fixed-path interferometer; for mass density: Vibrating tube method
[2] = refractive index (Na D-line) (dimensionless); xn = mol fraction of the nth substance listed; conditions: 101.3 kPa, Liquid, Standard Abbe refractometry

In the case of `CC[n+]1ccccc1.O=S(=O)([N-]S(=O)(=O)C(F)(F)F)C(F)(F)F` [1-ethylpyridinium bis[(trifluoromethyl)sulfonyl]imide] + O, the viscosity ([1]; 298.15 K, x2 = 0.16) is reported as 29.14 ± 0.96 mPa·s, the viscosity ([1]; 298.15 K, x2 = 0.213) is reported as 25.97 ± 0.77 mPa·s and the viscosity ([1]; 298.15 K, x2 = 0.311) is reported as 22.45 ± 0.65 mPa·s. The speed of sound ([1]; 298.15 K, x2 = 0.16) was 1270.7 ± 1.5 m/s, the speed of sound ([1]; 298.15 K, x2 = 0.213) was 1272.3 ± 1.5 m/s and the speed of sound ([1]; 298.15 K, x2 = 0.311) was 1276 ± 1.5 m/s. It also gave a mass density ([1]; 298.15 K, x2 = 0.16) of 1526.97 ± 1.1 kg/m3, a mass density ([1]; 298.15 K, x2 = 0.213) of 1523.14 ± 1.1 kg/m3 and a mass density ([1]; 298.15 K, x2 = 0.311) of 1515.34 ± 1.1 kg/m3. The viscosity ([1]; 303.15 K, x2 = 0.16) was 24.71 ± 0.86 mPa·s, the viscosity ([1]; 303.15 K, x2 = 0.213) was 22.07 ± 0.67 mPa·s and the viscosity ([1]; 303.15 K, x2 = 0.311) was 18.74 ± 0.55 mPa·s. The speed of sound ([1]; 303.15 K, x2 = 0.16) was 1259.7 ± 1.5 m/s, the speed of sound ([1]; 303.15 K, x2 = 0.213) was 1261.3 ± 1.5 m/s and the speed of sound ([1]; 303.15 K, x2 = 0.311) was 1265 ± 1.5 m/s. For the same molecule, the mass density ([1]; 303.15 K, x2 = 0.16) was 1521.95 ± 1.1 kg/m3, the mass density ([1]; 303.15 K, x2 = 0.213) was 1518.1 ± 1.1 kg/m3 and the mass density ([1]; 303.15 K, x2 = 0.311) was 1510.26 ± 1.1 kg/m3. The viscosity ([1]; 308.15 K, x2 = 0.16) was 21.3 ± 0.74 mPa·s, the viscosity ([1]; 308.15 K, x2 = 0.213) was 18.95 ± 0.58 mPa·s and the viscosity ([1]; 308.15 K, x2 = 0.311) was 16.02 ± 0.48 mPa·s. For the same molecule, the speed of sound ([1]; 308.15 K, x2 = 0.16) was 1248.8 ± 1.5 m/s, the speed of sound ([1]; 308.15 K, x2 = 0.213) was 1250.4 ± 1.5 m/s and the speed of sound ([1]; 308.15 K, x2 = 0.311) was 1254 ± 1.5 m/s. For the same molecule, the mass density ([1]; 308.15 K, x2 = 0.16) was 1516.97 ± 1.1 kg/m3, the mass density ([1]; 308.15 K, x2 = 0.213) was 1513.09 ± 1.1 kg/m3 and the mass density ([1]; 308.15 K, x2 = 0.311) was 1505.19 ± 1.1 kg/m3. It also gave a viscosity ([1]; 313.15 K, x2 = 0.16) of 18.53 ± 0.65 mPa·s, a viscosity ([1]; 313.15 K, x2 = 0.213) of 16.4 ± 0.51 mPa·s and a viscosity ([1]; 313.15 K, x2 = 0.311) of 13.8 ± 0.42 mPa·s. The speed of sound ([1]; 313.15 K, x2 = 0.16) was 1238 ± 1.5 m/s, the speed of sound ([1]; 313.15 K, x2 = 0.213) was 1239.6 ± 1.5 m/s and the speed of sound ([1]; 313.15 K, x2 = 0.311) was 1243.2 ± 1.4 m/s. It also gave a mass density ([1]; 313.15 K, x2 = 0.16) of 1512 ± 1.1 kg/m3, a mass density ([1]; 313.15 K, x2 = 0.213) of 1508.09 ± 1.1 kg/m3 and a mass density ([1]; 313.15 K, x2 = 0.311) of 1500.14 ± 1.1 kg/m3. It also gave a viscosity ([1]; 318.15 K, x2 = 0.16) of 16.21 ± 0.57 mPa·s, a viscosity ([1]; 318.15 K, x2 = 0.213) of 14.34 ± 0.45 mPa·s and a viscosity ([1]; 318.15 K, x2 = 0.311) of 12.1 ± 0.37 mPa·s. For the same molecule, the speed of sound ([1]; 318.15 K, x2 = 0.16) was 1227.4 ± 1.5 m/s, the speed of sound ([1]; 318.15 K, x2 = 0.213) was 1228.9 ± 1.5 m/s and the speed of sound ([1]; 318.15 K, x2 = 0.311) was 1232.4 ± 1.4 m/s. The mass density ([1]; 318.15 K, x2 = 0.16) was 1507.04 ± 1.1 kg/m3, the mass density ([1]; 318.15 K, x2 = 0.213) was 1503.11 ± 1.1 kg/m3 and the mass density ([1]; 318.15 K, x2 = 0.311) was 1495.11 ± 1.1 kg/m3. For the same molecule, the viscosity ([1]; 323.15 K, x2 = 0.16) was 14.16 ± 0.47 mPa·s, the viscosity ([1]; 323.15 K, x2 = 0.213) was 12.71 ± 0.39 mPa·s and the viscosity ([1]; 323.15 K, x2 = 0.311) was 10.71 ± 0.33 mPa·s. For the same molecule, the speed of sound ([1]; 323.15 K, x2 = 0.16) was 1216.9 ± 1.5 m/s, the speed of sound ([1]; 323.15 K, x2 = 0.213) was 1218.3 ± 1.5 m/s and the speed of sound ([1]; 323.15 K, x2 = 0.311) was 1221.8 ± 1.4 m/s. For the same molecule, the mass density ([1]; 323.15 K, x2 = 0.16) was 1502.11 ± 1.1 kg/m3, the mass density ([1]; 323.15 K, x2 = 0.213) was 1498.16 ± 1.1 kg/m3 and the mass density ([1]; 323.15 K, x2 = 0.311) was 1490.1 ± 1.1 kg/m3. The viscosity ([1]; 328.15 K, x2 = 0.16) was 12.5 ± 0.39 mPa·s, the viscosity ([1]; 328.15 K, x2 = 0.213) was 11.35 ± 0.34 mPa·s and the viscosity ([1]; 328.15 K, x2 = 0.311) was 9.547 ± 0.3 mPa·s. The speed of sound ([1]; 328.15 K, x2 = 0.16) was 1206.4 ± 1.5 m/s, the speed of sound ([1]; 328.15 K, x2 = 0.213) was 1207.8 ± 1.5 m/s and the speed of sound ([1]; 328.15 K, x2 = 0.311) was 1211.2 ± 1.4 m/s. It also gave a mass density ([1]; 328.15 K, x2 = 0.16) of 1497.2 ± 1.1 kg/m3, a mass density ([1]; 328.15 K, x2 = 0.213) of 1493.22 ± 1.1 kg/m3 and a mass density ([1]; 328.15 K, x2 = 0.311) of 1485.1 ± 1.1 kg/m3. For the same molecule, the viscosity ([1]; 333.15 K, x2 = 0.16) was 11.14 ± 0.34 mPa·s, the viscosity ([1]; 333.15 K, x2 = 0.213) was 10.18 ± 0.3 mPa·s and the viscosity ([1]; 333.15 K, x2 = 0.311) was 8.555 ± 0.27 mPa·s. It also gave a speed of sound ([1]; 333.15 K, x2 = 0.16) of 1196.1 ± 1.5 m/s, a speed of sound ([1]; 333.15 K, x2 = 0.213) of 1197.4 ± 1.5 m/s and a speed of sound ([1]; 333.15 K, x2 = 0.311) of 1200.7 ± 1.4 m/s. The mass density ([1]; 333.15 K, x2 = 0.16) was 1492.3 ± 1.1 kg/m3, the mass density ([1]; 333.15 K, x2 = 0.213) was 1488.3 ± 1.1 kg/m3 and the mass density ([1]; 333.15 K, x2 = 0.311) was 1480.12 ± 1.1 kg/m3. The viscosity ([1]; 338.15 K, x2 = 0.16) was 9.991 ± 0.3 mPa·s, the viscosity ([1]; 338.15 K, x2 = 0.213) was 9.164 ± 0.27 mPa·s and the viscosity ([1]; 338.15 K, x2 = 0.311) was 7.709 ± 0.24 mPa·s. It also gave a speed of sound ([1]; 338.15 K, x2 = 0.16) of 1185.9 ± 1.5 m/s, a speed of sound ([1]; 338.15 K, x2 = 0.213) of 1187.1 ± 1.5 m/s and a speed of sound ([1]; 338.15 K, x2 = 0.311) of 1190.3 ± 1.4 m/s. It also gave a mass density ([1]; 338.15 K, x2 = 0.16) of 1487.43 ± 1.1 kg/m3, a mass density ([1]; 338.15 K, x2 = 0.213) of 1483.4 ± 1.1 kg/m3 and a mass density ([1]; 338.15 K, x2 = 0.311) of 1475.16 ± 1.1 kg/m3. It also gave a viscosity ([1]; 343.15 K, x2 = 0.16) of 9.019 ± 0.26 mPa·s, a viscosity ([1]; 343.15 K, x2 = 0.213) of 8.282 ± 0.24 mPa·s and a viscosity ([1]; 343.15 K, x2 = 0.311) of 6.971 ± 0.22 mPa·s. The speed of sound ([1]; 343.15 K, x2 = 0.16) was 1175.7 ± 1.5 m/s, the speed of sound ([1]; 343.15 K, x2 = 0.213) was 1176.9 ± 1.5 m/s and the speed of sound ([1]; 343.15 K, x2 = 0.311) was 1180 ± 1.4 m/s. It also gave a mass density ([1]; 343.15 K, x2 = 0.16) of 1482.56 ± 1.1 kg/m3, a mass density ([1]; 343.15 K, x2 = 0.213) of 1478.5 ± 1.1 kg/m3 and a mass density ([1]; 343.15 K, x2 = 0.311) of 1470.22 ± 1.1 kg/m3. It also gave a refractive index ([2]; 298.15 K, x2 = 0.16) of 1.43876 ± 0.00038, a refractive index ([2]; 298.15 K, x2 = 0.213) of 1.43815 ± 0.00038 and a refractive index ([2]; 298.15 K, x2 = 0.311) of 1.43705 ± 0.00037. The refractive index ([2]; 303.15 K, x2 = 0.16) was 1.4374 ± 0.00037, the refractive index ([2]; 303.15 K, x2 = 0.213) was 1.43684 ± 0.00038 and the refractive index ([2]; 303.15 K, x2 = 0.311) was 1.43552 ± 0.00037. It also gave a refractive index ([2]; 308.15 K, x2 = 0.16) of 1.43587 ± 0.00037, a refractive index ([2]; 308.15 K, x2 = 0.213) of 1.43539 ± 0.00037 and a refractive index ([2]; 308.15 K, x2 = 0.311) of 1.43461 ± 0.00036. The refractive index ([2]; 313.15 K, x2 = 0.16) was 1.4344 ± 0.00036, the refractive index ([2]; 313.15 K, x2 = 0.213) was 1.43415 ± 0.00037 and the refractive index ([2]; 313.15 K, x2 = 0.311) was 1.43318 ± 0.00036. The refractive index ([2]; 318.15 K, x2 = 0.16) was 1.43296 ± 0.00036, the refractive index ([2]; 318.15 K, x2 = 0.213) was 1.43277 ± 0.00036 and the refractive index ([2]; 318.15 K, x2 = 0.311) was 1.43193 ± 0.00036. It also gave a refractive index ([2]; 323.15 K, x2 = 0.16) of 1.43144 ± 0.00036, a refractive index ([2]; 323.15 K, x2 = 0.213) of 1.43144 ± 0.00036 and a refractive index ([2]; 323.15 K, x2 = 0.311) of 1.43082 ± 0.00035. The refractive index ([2]; 328.15 K, x2 = 0.16) was 1.43003 ± 0.00036, the refractive index ([2]; 328.15 K, x2 = 0.213) was 1.42994 ± 0.00035 and the refractive index ([2]; 328.15 K, x2 = 0.311) was 1.42955 ± 0.00035. The refractive index ([2]; 333.15 K, x2 = 0.16) was 1.42859 ± 0.00036, the refractive index ([2]; 333.15 K, x2 = 0.213) was 1.42857 ± 0.00035 and the refractive index ([2]; 333.15 K, x2 = 0.311) was 1.42824 ± 0.00035. It also gave a refractive index ([2]; 338.15 K, x2 = 0.16) of 1.42719 ± 0.00036, a refractive index ([2]; 338.15 K, x2 = 0.213) of 1.42725 ± 0.00035 and a refractive index ([2]; 338.15 K, x2 = 0.311) of 1.42694 ± 0.00035. The refractive index ([2]; 343.15 K, x2 = 0.16) was 1.42569 ± 0.00036, the refractive index ([2]; 343.15 K, x2 = 0.213) was 1.42589 ± 0.00035 and the refractive index ([2]; 343.15 K, x2 = 0.311) was 1.42551 ± 0.00035.
